Common to all, as to assay type: cell-based, human
The subject of one assay is 786-O. The experiment in a line: Cell proliferation (Alamar Blue) assay, 786-O. The settings on record: Homo sapiens, 786-0, 24 h, 786-O cells, 24 h treatment. The protocol: (§1) A cell viability assay was performed to assess the potency of the compounds in human cancer cell lines 786-0 (renal cell carcinoma), SJSA-1 (osteosarcoma), and/or A431 (epidermoid carcinoma). Additional cell lines, such as pancreatic cancer cell lines (e.g., Panc 02.13, BxPC-3, Panc 12, Panc 02.03, Panc 6.03, PSN-1, HPAC, and Capan-1), prostate cancer cell lines (e.g., PC-3, DU145, 22Rv1, NCI-H660, BPH1, LNCaP, BM-1604, and MDA PCa 2b), etc., can be tested in a similar method.
(§2) Cells (SJSA-1, 786-0 and/or A431) were seeded (5000 cells/100 μL/well) in 96-well tissue culture plate and incubated at 37° C./5% CO2 for 16-24 hours. The cells were then treated with compounds (25 μL of 5×). The compound concentrations were 10-0.0005 μM prepared in 3-fold serial dilutions with final DMSO concentration of 1%. The plates were then incubated for 24h at 37° C./5% CO2 in a moist environment. Then Alamar Blue™ reagent (final concentration 1×-12.5 μL) was added to each well and incubated for 1.5 hours at 37° C./5% CO2. The plates were read on fluorescence reader at 540 nm excitation and 590 nm emission wavelengths. The IC50 values were subsequently determined using a sigmoidal dose-response curve (variable slope) in GraphPad Prism® 5 software.
(The colour change of resazurin is a common sign of viable cells or microbes.)

The next assay deals with SJSA-1. Kind of assay: Cell proliferation (Alamar Blue) assay, SJSA-1. The settings on record: Homo sapiens, SJSA-1 cells, 24 h treatment. As for the experimental part:
as §1, §2

Another assay concerns A431. Kind of assay: Cell proliferation (Alamar Blue) assay, A431. The settings on record: Homo sapiens, A-431, A431 cells, 24 h treatment. As for the experimental part:
as §1, §2

In patent US20220002280A1, “COMPOUNDS AND METHODS OF USE” (Ferro Therapeutics, Inc., priority 2019, published 2022) one finds IC50 data, which are given here for 22 compounds.

Where only a bound is given, the exact number is not on record here.

By IC50 is commonly meant the midpoint of a concentration-inhibition curve. A low value points to greater potency.

In the assay on 786-O, `COc1ccc2c(c1)C[C@H](C)N(C(=O)CCl)[C@H]2c1ccc(N2CCOCC2)cc1` [Compound 33] yielded an IC50 of 0.259 µM.
For the compound `CCCC[C@H]1Cc2cc(OC)ccc2[C@H](c2ccc(F)cc2)N1C(=O)CCl` [Compound 11, 1-((1S,3S)-3-butyl-1-(4-fluorophenyl)-6-methoxy-3,4-dihydroisoquinolin-2(1H)-yl)-2-chloroethan-1-one], the IC50 is 0.018 µM in the assay on SJSA-1, 0.016 µM with 786-O and over 10 µM in the assay on A431.
The like results for `C#CC(=O)N1[C@@H](CCCC)Cc2cc(OC)ccc2[C@@H]1C1CCCCC1` [Compound 39, 1-((1S,3S)-3-butyl-1-cyclohexyl-6-methoxy-3,4-dihydroisoquinolin-2(1H)-yl)prop-2-yn-1-one] were, in that order, 0.17 µM, 0.158 µM and over 10 µM.
For `C#CC(=O)N1[C@@H](CCCC)Cc2cc(OC)ccc2[C@@H]1c1ccn(C)n1` [Compound 50, 1-[(1R,3S)-3-butyl-6-methoxy-1-(1-methyl-1H-pyrazol-3-yl)-1,2,3,4-tetrahydroisoquinolin-2-yl]prop-2-yn-1-one] the same measures were 0.101 µM, 0.065 µM and over 10 µM.
For `C#CC(=O)N1[C@H](c2ccc(F)cc2)c2ccc(OC)cc2C[C@@H]1C` [Compound 10] the same measures were 0.278 µM, 0.164 µM and 8.6 µM.
As for `C#CC(=O)N1[C@@H](CCCC)Cc2cc(OC)ccc2[C@@H]1c1ccc(NC(=O)C2CCC2)cc1` [Compound 102, N-(4-((1S,3S)-3-butyl-6-methoxy-2-propioloyl-1,2,3,4-tetrahydroisoquinolin-1-yl)phenyl)cyclobutanecarboxamide], the half-inhibitory concentration (IC50) was 0.021 µM in the assay on SJSA-1, 0.021 µM in the assay with 786-O and 6.13 µM in the assay on A431.
In the case of `C#CC(=O)N1[C@@H](CCCC)Cc2cc(OC)ccc2[C@@H]1C12CC(NC(=O)c3ccncc3)(C1)C2` [Compound 96, N-(3-((1S,3S)-3-butyl-6-methoxy-2-propioloyl-1,2,3,4-tetrahydroisoquinolin-1-yl)bicyclo[1.1.1]pentan-1-yl)isonicotinamide], the IC50 in the assay on SJSA-1 is 0.368 µM; with 786-O, 0.163 µM; with A431, over 10 µM.
For the compound `C#CC(=O)N1[C@@H](CCCC)Cc2cc(OC)ccc2[C@@H]1c1ccc2ncccc2c1` [Compound 97, 1-((1S,3S)-3-butyl-6-methoxy-1-(quinolin-6-yl)-3,4-dihydroisoquinolin-2(1H)-yl)prop-2-yn-1-one], the concentration for half-maximal inhibition (IC50) in the assay on SJSA-1 is 0.068 µM; in the assay with 786-O, 0.026 µM; in the assay with A431, over 10 µM.
As to `C#CC(=O)N1[C@@H](CCCC)Cc2cc(OC)ccc2[C@@H]1c1ccc(NC(=O)c2ccnc(C)c2)cc1` [Compound 95, N-{4-[(1S,3S)-3-butyl-6-methoxy-2-(prop-2-ynoyl)-1,2,3,4-tetrahydroisoquinolin-1-yl]phenyl}-2-methylpyridine-4-carboxamide], the IC50 with SJSA-1 was 0.2 µM; in the assay with 786-O, 0.037 µM; with A431 it was over 10 µM.
For `C#CC(=O)N1[C@@H](CCCC)Cc2cc(OC)ccc2[C@@H]1c1ccc(C(=O)NC23CC4CC(CC(C4)C2)C3)cc1` [Compound 38, N-((3R,5R,7R)-adamantan-1-yl)-4-((1S,3S)-3-butyl-6-methoxy-2-propioloyl-1,2,3,4-tetrahydroisoquinolin-1-yl)benzamide], the IC50 in the assay with SJSA-1 is 0.01 µM; in the assay on 786-O it was 0.005 µM; in the assay on A431, 10 µM.
As for `C#CC(=O)N1[C@@H](CCCC)Cc2cc(OC)ccc2[C@@H]1C1CCN(C)CC1` [Compound 54, 1-((3S)-3-butyl-6-methoxy-1-(1-methylpiperidin-4-yl)-3,4-dihydroisoquinolin-2(1H)-yl)prop-2-yn-1-one], the IC50 with SJSA-1 was 0.659 µM; in the assay with 786-O it was 0.743 µM; with A431 it was 5.8 µM.
On to `C#CC(=O)N1[C@@H](CCCC)Cc2cc(OC)ccc2[C@@H]1c1ccc(C(=O)NC2CCC2)nc1` [Compound 15, 5-((1R,3S)-3-butyl-6-methoxy-2-propioloyl-1,2,3,4-tetrahydroisoquinolin-1-yl)-N-cyclobutylpicolinamide], for which the IC50 in the assay with SJSA-1 was 0.018 µM; in the assay with 786-O it was 0.01 µM; with A431, 3.5 µM.
For `C#CC(=O)N1[C@@H](CCCC)Cc2cc(OC)ccc2[C@@H]1c1ccc(-c2nc(C)no2)cc1` [Compound 55, 1-((1S,3S)-3-butyl-6-methoxy-1-(4-(3-methyl-1,2,4-oxadiazol-5-yl)phenyl)-3,4-dihydroisoquinolin-2(1H)-yl)prop-2-yn-1-one] the same measures were 0.032 µM, 0.027 µM and 2.3 µM.
For `C#CC(=O)N1[C@@H](CCCC)Cc2cc(OC)ccc2[C@@H]1c1ccc(NC(=O)OCCCCC)cc1` [Compound 98, pentyl N-{4-[(1S,3S)-3-butyl-6-methoxy-2-(prop-2-ynoyl)-1,2,3,4-tetrahydroisoquinolin-1-yl]phenyl}carbamate] the same measures were 0.053 µM, 0.024 µM and 8.92 µM.
As to `C#CC(=O)N1[C@@H](CCCC)Cc2cc(OC)ccc2[C@@H]1c1ccc(C(=O)NCCOC)cc1` [Compound 14, 4-((1S,3S)-3-butyl-6-methoxy-2-propioloyl-1,2,3,4-tetrahydroisoquinolin-1-yl)-N-(2 methoxyethyl)benzamide], the results for the IC50 in the assay on SJSA-1, in the assay with 786-O and in the assay with A431 were 0.07 µM, 0.024 µM and 7.6 µM, respectively.
For the compound `CCCC[C@H]1Cc2cc(OC)ccc2[C@H](c2ccc(NC34CC5CC(CC(C5)C3)C4)cc2)N1C(=O)CCl` [Compound 27, 1-((1S,3S)-1-(4-(((3R,5R,7R)-adamantan-1-yl)amino)phenyl)-3-butyl-6-methoxy-3,4-dihydroisoquinolin-2(1H)-yl)-2-chloroethan-1-one], the values for the concentration for half-maximal inhibition (IC50) with SJSA-1, in the assay with 786-O and with A431 were 0.006 µM, 0.004 µM and 8.4 µM, respectively.
Regarding `COC(=O)c1ccc([C@H]2c3ccccc3C[C@H](C)N2C(=O)CCl)cc1` [Compound 35], the IC50 with SJSA-1 was found to be 2.56 µM.
As to `C#CC(=O)N1[C@@H](CCCC)Cc2cc(OC)ccc2[C@@H]1c1ccccn1` [Compound 49, 1-((1R,3S)-3-butyl-6-methoxy-1-(pyridin-2-yl)-3,4-dihydroisoquinolin-2(1H)-yl)prop-2-yn-1-one], the IC50 was determined as 0.04 µM in the assay with SJSA-1, 0.023 µM in the assay with 786-O and 6.6 µM in the assay with A431.
As for `C[C@H]1Cc2ccccc2C(c2ccc(N3CCOCC3)cc2)N1C(=O)CCl` (stereo partly drawn) [Compound 1, 2-chloro-1-((3S)-3-methyl-1-(4-morpholinophenyl)-3,4-dihydroisoquinolin-2(1H)-yl)ethan-1-one], the IC50 worked out at 2.8 µM with SJSA-1 and 2 µM in the assay with 786-O.
As for `COC(=O)c1ccc([C@H]2c3ccccc3C[C@H](C(=O)OC)N2C(=O)CCl)cc1` [Compound 3, methyl (1S,3R)-2-(2-chloroacetyl)-1-(4-(methoxycarbonyl)phenyl)-1,2,3,4-tetrahydroisoquinoline-3-carboxylate], the IC50 is 0.736 µM in the assay on SJSA-1, 0.512 µM in the assay on 786-O and over 10 µM in the assay with A431.
For `C#CC(=O)N1[C@@H](CCCC)Cc2cc(OC)ccc2[C@@H]1c1ccc(CNC23CC(C2)C3)cc1` [Compound 100] the same measures were 0.021 µM, 0.013 µM and 4.06 µM.
In the assay with 786-O, `COC(=O)c1ccc([C@H]2c3cc(OC)c(OC)cc3C[C@H](C)N2C(=O)CCl)cc1` [Compound 34] came in with an IC50 of 0.592 µM. This lies in the sub-micromolar range.
